Assay results from US20240262795A1, “PYRAZINE COMPOUNDS AS INHIBITORS OF FLT3” (Biomea Fusion, Inc., priority 2021, published 2024).
Read-outs that look alike come from different tables or passages of the source.

Key:
WT FLT3 = biological target: T1, WT FLT3 (Homo sapiens, UniProt P36888); assay: WT FLT3 Lance Ultra TR-FRET kinase assay; type: biochemical
T1 construct: purchased Invitrogen PR4666C
T1 sequence (P36888 564-993 limits assumed): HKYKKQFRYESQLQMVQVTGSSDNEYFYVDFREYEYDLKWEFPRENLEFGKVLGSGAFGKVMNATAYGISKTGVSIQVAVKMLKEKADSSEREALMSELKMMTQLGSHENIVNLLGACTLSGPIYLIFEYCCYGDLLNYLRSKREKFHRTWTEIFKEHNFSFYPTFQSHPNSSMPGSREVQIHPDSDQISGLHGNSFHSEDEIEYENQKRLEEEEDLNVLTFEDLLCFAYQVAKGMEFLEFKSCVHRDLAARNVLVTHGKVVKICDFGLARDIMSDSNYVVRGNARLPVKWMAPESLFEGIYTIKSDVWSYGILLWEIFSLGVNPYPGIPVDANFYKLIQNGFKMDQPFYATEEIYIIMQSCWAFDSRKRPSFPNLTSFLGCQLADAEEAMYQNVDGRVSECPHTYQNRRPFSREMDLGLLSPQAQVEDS
From the text: (§1) High throughput 384-well Lance Ultra TR-FRET based kinase assays were established for the WT FLT3 and FLT3-ITD enzymes and employed a ULight-labeled peptide […] and FLT3 proteins labelled with Eu-conjugated antibody […] (WuXi Aptec). The principle of TR-FRET is based on transfer of energy between a donor and acceptor fluorophore that results when the fluorophores are within close proximity (˜100 Å) of each other. Recombinant WT FLT3 (#PR4666C, M.W. 48.6 kDa) was purchased from Invitrogen and FLT3-ITD (FLT3-ITD-W51, #F-12-12CG-10, M.W. 76 kDa) was purchased from Signalchem. Optimal assay conditions for the WT FLT3 enzyme assay were as follows: 0.5 nM FLT3 protein, 50 nM ULight-JAK-1 (Tyr1023) substrate peptide (PerkinElmer #TRF0121), 100 μM ATP, 60 min reaction time. Optimal assay conditions for the FLT3-ITD enzyme assay were as follows: 0.0625 nM FLT3-ITD protein, 50 nM ULight-JAK-1 (Tyr1023) substrate peptide, 50 μM ATP, 90 min reaction time. Briefly, 11 dose 3× serial dilutions were prepared for the test compounds and the reference compound and 100 nanoliters transferred to appropriate wells of 384-well assay plates. Five microliters of 2× enzyme/peptide were added into assay wells, assay plates centrifuged at 1000 rpm for about 30 seconds, sealed with sealing film and incubated for 30 min at 23° C. Assay buffer comprised 50 mM HEPES (pH 7.5), 1 mM EDTA, 0.01% Brij-35, 10 mM MgCl2 and 2 mM DTT. Next 5 μl of a 2× ATP mixture were added into the assay wells and the plates centrifuged at 1000 rpm about 30 seconds, sealed with sealing film and incubated for 23° C. for appropriate duration. Following assay incubation (30 min for WT FLT3 and 60 min for FLT3-ITD) 10 μl 2× Detection Mixture (Eu-W1024 Anti-phosphotyrosine (PT66) 2 nM and EDTA 10 mM) was added to assay wells, assay plates centrifuge at 1000 rpm about 1 minutes, sealed with sealing film and incubated at 23° C. for 60 minutes. Assay plates were read on a Perkin Elmer Envision reader at two wavelengths (665/615) and the ratio of […] calculated.
(§2) Data was expressed as % of inhibition relative to the vehicle control and calculated as follows:
(§3) Results were analyzed by XLFIT5 as % inhibition vs. log [compound concentration] and IC50 values were calculated by non-linear regression using four parameter-logistic equation. Fit=(A+((B−A)/(1+((C/x)^D)))). Res=(y−fit).

K-562 = assay: Proliferation inhibition, CellTiter-Glo, K-562; type: cell-based, human; conditions: for IC50: Homo sapiens
Method in brief: (§4)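 About 10,000 cells per well in RPMI-1640 with 10% FBS. Compounds added 2 h after seeding at eight concentrations in duplicate (0.2% DMSO as 100% proliferation), then incubated ~96 h at 37° C, 5% CO2. ATP measured by CellTiter-Glo luminescence; IC50 from four-parameter logistic fit.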

MV-4-11 = assay: Proliferation inhibition, CellTiter-Glo, MV-4-11; type: cell-based, human; conditions: for IC50: Homo sapiens
Method in brief: as §4

MOLM-13 = assay: Proliferation inhibition, CellTiter-Glo, MOLM-13; type: cell-based, human; conditions: for IC50: Homo sapiens, MOLM-13 cells
Method in brief: as §4

FLT3-ITD = biological target: T2, FLT3-ITD (Homo sapiens, UniProt P36888, DUP595-601); assay: FLT3-ITD Lance Ultra TR-FRET kinase assay; type: biochemical
T2 construct: purchased Signalchem F-12-12CG-10
T2 sequence (P36888 with tags, fused parts or gaps DUP595-601 limits assumed): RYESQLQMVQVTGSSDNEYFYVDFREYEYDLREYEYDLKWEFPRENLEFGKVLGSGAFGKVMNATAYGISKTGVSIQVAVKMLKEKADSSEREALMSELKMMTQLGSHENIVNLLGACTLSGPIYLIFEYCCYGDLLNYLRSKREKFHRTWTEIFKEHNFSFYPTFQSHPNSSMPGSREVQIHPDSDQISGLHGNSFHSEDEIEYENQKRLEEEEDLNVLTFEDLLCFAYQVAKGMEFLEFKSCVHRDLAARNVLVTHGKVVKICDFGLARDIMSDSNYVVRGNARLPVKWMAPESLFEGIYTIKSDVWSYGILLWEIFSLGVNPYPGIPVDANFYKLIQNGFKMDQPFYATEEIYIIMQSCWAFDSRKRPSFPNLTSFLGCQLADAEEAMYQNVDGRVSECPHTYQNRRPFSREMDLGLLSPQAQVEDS
From the text: as §1, §2, §3

[1] = K562, 96 h, K-562 cells, IC50 (4 days), CellTiter-Glo, read-out: K-562 IC50
[2] = MV4-11, 96 h, MV-4:11 cells, IC50 (4 days), CellTiter-Glo, read-out: MV-4:11 IC50
[3] = 96 h, IC50 (4 days), CellTiter-Glo, read-out: MOLM-13 IC50

Row | IC50 (WT FLT3) [nM] | IC50 (K-562; [1]) [nM] | IC50 (MV-4-11; [2]) [nM] | IC50 (MOLM-13; [3]) [nM] | IC50 (FLT3-ITD) [nM] | IC50 (K-562; K562 cells, read-out: IC50 in K562 cells) [nM] | IC50 (MV-4-11; MV4-11 cells, read-out: IC50 in MV4-11 cells) [nM] | IC50 (MOLM-13; read-out: IC50 in MOLM-13 cells) [nM] | SMILES | Ymax in K562 cells (K-562; K562 cells) [%] | Ymax in MV4-11 cells (MV-4-11; MV4-11 cells) [%] | Ymax in MOLM-13 cells (MOLM-13) [%]
1 | 0.201 to 0.5 | > 500 | < 1 | 10 to 100 | 0.201 to 0.5 |  |  |  | C=Cc1nc(C(N)=O)c(Nc2cccc(CCNC(=O)CN(C)C(=O)/C=C/CN(C)C)c2)nc1N(C)C(C)C [Compound 328, (E)-3-((3-(2-(2-(4-(dimethylamino)-N-methylbut-2-enamido)acetamido)ethyl)phenyl)amino)-5-(isopropyl(methyl)amino)-6-vinylpyrazine-2-carboxamide] |  |  | 
2 | 0.101 to 0.2 | > 500 | < 1 | < 1 | 0.101 to 0.2 |  |  |  | CCc1nc(C(N)=O)c(Nc2cc(F)cc(CCNC(=O)[C@H](C)N(C)C(=O)/C=C/CN(C)C)c2)nc1N(C)C [Compound 158, (S,E)-5-(dimethylamino)-3-((3-(2-(2-(4-(dimethylamino)-N-methylbut-2-enamido)propanamido)ethyl)-5-fluorophenyl)amino)-6-ethylpyrazine-2-carboxamide] |  |  | 
3 | > 1 | > 500 | > 500 | > 500 | > 1 | > 100 | > 100 | > 100 | C=CC(=O)Nc1cc(Nc2nc(N[C@H]3CC[C@@](C)(O)CC3)c(CC)nc2C(N)=O)ccc1C [Compound C-3, reference compound] | 0 | 6.8 | 0
4 | > 1 | > 500 | 10 to 100 | 10 to 100 | > 1 |  |  |  | C=CC(=O)N(C)CC(=O)NCCc1cccc(Nc2nc(CC(C)C)c(CC)nc2C(N)=O)c1 [Compound 510, 6-ethyl-5-isobutyl-3-((3-(2-(2-(N-methylacrylamido)acetamido)ethyl)phenyl)amino) pyrazine-2-carboxamide] |  |  | 
5 | 0.501 to 1 | > 500 | < 1 | 1 to 10 | 0.101 to 0.2 |  |  |  | C=CC(=O)N(C)[C@@H](C)C(=O)NCCc1cccc(Nc2nc(N(C)C)c(CC)nc2C(N)=O)c1 [Compound 213, (S)-5-(dimethylamino)-6-ethyl-3-((3-(2-(2-(N-methylacrylamido)propanamido)ethyl)phenyl)amino)pyrazine-2-carboxamide] |  |  | 
6 | 0.501 to 1 | > 500 | 1 to 10 | 1 to 10 | 0.501 to 1 |  |  |  | CCc1nc(C(N)=O)c(Nc2cccc([C@@H](C)CNC(=O)CN(C)C(=O)/C=C/CN3CCC3)c2)nc1CC(C)C [Compound 517, (R, E)-3-((3-(1-(2-(4-(azetidin-1-yl)-N-methylbut-2-enamido)acetamido)propan-2-yl)phenyl)amino)-6-ethyl-5-isobutylpyrazine-2-carboxamide] |  |  | 
7 | 0.201 to 0.5 | > 500 | < 1 | < 1 | 0.201 to 0.5 |  |  |  | CCc1nc(C(N)=O)c(Nc2cc(CCNC(=O)[C@H](C)N(C)C(=O)/C=C/CN(C)C)cc(OC)c2)nc1C1CC1 [Compound 144, (S,E)-5-cyclopropyl-3-((3-(2-(2-(4-(dimethylamino)-N-methylbut-2-enamido)propanamido)ethyl)-5-methoxyphenyl)amino)-6-ethylpyrazine-2-carboxamide] |  |  | 
8 | > 1 | > 500 | < 1 | 1 to 10 | 0.501 to 1 |  |  |  | CCc1nc(C(N)=O)c(Nc2cccc(CCNC(=O)CN(C)C(=O)/C=C/CN3CCC3)c2)nc1CC(C)C [Compound 601, (E)-3-((3-(2-(2-(4-(azetidin-1-yl)-N-methylbut-2-enamido)acetamido)ethyl)phenyl)amino)-6-ethyl-5-isobutylpyrazine-2-carboxamide] |  |  | 
9 | > 1 | > 500 | 1 to 10 | 1 to 10 | 0.501 to 1 |  |  |  | CCc1nc(C(N)=O)c(Nc2ccnc(CCNC(=O)CN(C)C(=O)/C=C/CN3CCC3)c2)nc1C1CC1 [Compound 520, (E)-3-((2-(2-(2-(4-(azetidin-1-yl)-N-methylbut-2-enamido)acetamido)ethyl)pyridin-4-yl)amino)-5-cyclopropyl-6-ethylpyrazine-2-carboxamide] |  |  | 
10 | 0.201 to 0.5 | > 500 | < 1 | < 1 | 0.501 to 1 |  |  |  | CCc1nc(Nc2cccc([C@@H](C)CNC(=O)CN(C)C(=O)/C=C/CN(C)C)c2)c(C(N)=O)nc1CC [Compound 503, (R, E)-3-((3-(1-(2-(4-(dimethylamino)-N-methylbut-2-enamido)acetamido)propan-2-yl)phenyl)amino)-5,6-diethylpyrazine-2-carboxamide] |  |  | 
11 | 0.201 to 0.5 | > 500 | < 1 | < 1 | 0.201 to 0.5 |  |  |  | CCc1nc(C(N)=O)c(Nc2cccc(CCNC(=O)[C@H](C)N(C)C(=O)/C=C/CNC)c2)nc1NC(C)C [Compound 303, (S, E)-6-ethyl-5-(isopropylamino)-3-((3-(2-(2-(N-methyl-4-(methylamino)but-2-enamido)propanamido)ethyl)phenyl)amino) pyrazine-2-carboxamide] |  |  | 
12 | 0.101 to 0.2 | > 500 | < 1 | < 1 | 0.201 to 0.5 |  |  |  | CCc1nc(C(N)=O)c(Nc2cccc(CCNC(=O)[C@H](C)NC(=O)/C=C/CN(C)C)c2)nc1N(C)C(C)C [Compound 502, (S,E)-3-((3-(2-(2-(4-(dimethylamino)but-2-enamido)propanamido)ethyl)phenyl)amino)-6-ethyl-5-(isopropyl(methyl)amino) pyrazine-2-carboxamide] |  |  | 
